Assay results reported in article PMC12514245, “Impaired migration and lung invasion of human melanoma by a novel small molecule targeting the transmembrane domain of death receptor p75^NTR” (EMBO Molecular Medicine, 2025).
“And” between values parts separate entries of the source, which are not always exact repeats. Equal entries are not always repeated. “Also recorded” adds a separate entry of the source. Where two headings read alike, the source gives them in different places.

Columns and labels:
α2β3 integrin TMD = test: AraTM assay, α2β3 integrin TMD; assay type: cell-based; details: for GFP/OD630, A2b, mean: N=3
[1] = target: T1, p75^NTR I253A TMD mutant in COS cells (Rattus norvegicus, UniProt P07174, I253A); test: Live cell homo-FRET anisotropy, I253A mutant p75NTR; assay type: cell-based; parameters: key to average anisotropy change, I253A: fold change vs mean of 6 pre-treatment time points (baseline ≈ 100); details: for average anisotropy change, I253A: 10 μM
T1 construct: COS cells expressing full length, GFP-tagged rat p75^NTR; expressed in transfected cells; host or cells: COS-7
T1 sequence (P07174 30-425 I253A): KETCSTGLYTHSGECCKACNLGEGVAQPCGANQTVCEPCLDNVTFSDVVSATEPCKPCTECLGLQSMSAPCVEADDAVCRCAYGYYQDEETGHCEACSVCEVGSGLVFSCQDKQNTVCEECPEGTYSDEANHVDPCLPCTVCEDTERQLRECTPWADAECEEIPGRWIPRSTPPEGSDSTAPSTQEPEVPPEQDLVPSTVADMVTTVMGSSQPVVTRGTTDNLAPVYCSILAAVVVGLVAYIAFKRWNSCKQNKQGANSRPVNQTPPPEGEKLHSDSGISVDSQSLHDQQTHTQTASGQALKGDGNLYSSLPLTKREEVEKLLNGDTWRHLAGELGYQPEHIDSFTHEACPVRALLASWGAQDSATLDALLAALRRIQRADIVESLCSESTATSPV
From the text: Previous real-time homo-FRET anisotropy studies by ours as well as other laboratories have shown that the intracellular death domains of p75^NTR are associated with each other (high FRET, low anisotropy state) under basal conditions (Vilar et al, [2009]; Sykes et al, [2012]), but neurotrophin binding induces transient separation of p75^NTR death domains (low FRET, high anisotropy state) manifested as oscillations in real-time anisotropy measurements (Lin et al, [2015]; Tanaka et al, [2016]; Goh et al, [2018]). COS cells expressing full length, GFP-tagged rat p75^NTR were treated with vehicle or Div17E5 and changes in anisotropy levels were recorded over time.
Anisotropy imaging in COS-7 cells that were transfected with a rat p75^NTR-EGFP* fusion construct was done as previously described (Goh, Lin et al, [2018]). EGFP* carries a […] mutation rendering monomeric EGFP. Changes in anisotropy were expressed as fold change at each time point (every 30 s) in comparison to the mean of 6 time points obtained prior to addition of treatment. Images were acquired using Nikon Ti-E based live cell epi-fluorescence microscope and MetaMorph software and analyzed using MatLab from Mathworks.

A875 NT cells = test: Filopodia per cell (phalloidin staining), A875 NT; assay type: cell-based, human; details: for Filopodia per cell, mean of the well: EXP1 NT; for Filopodia per cell, mean of experiment: EXP1-EXP3; for Filopodia per cell, mean of three experiments: mean of EXP1-3
Description: For assessment of actin filaments, A875 cells were plated on glass coverslips in 24-well plate at a confluency of 3 × 10^4 cells/well. One day after plating, the cells were treated with 1 μM or 5 μM Np75-4A22 and NGF (100 ng/ml) or PBS for 24 h. Cells were fixed in 4% paraformaldehyde, permeabilized in 0.1% Triton-X-100, stained with Phalloidin-iFluor 488 (Abcam) at 1:2000 dilution and DAPI for 1 h. Coverslips were mounted and visualized in a laser confocal microscope.

[2] = Plasma pharmacokinetics in mice; assay type: in vivo, C57BL/6 mice; details: for Cmax: read-out: C0/Cmax; for Vd: read-out: Vss
[3] = 1 uM 4A22 with 100 ng/ml NGF, A875 NT
[4] = 5 uM 4A22 with 100 ng/ml NGF, A875 NT
[5] = C57BL/6, mouse, IV 3 mg/kg, female, plasma
[6] = C57BL/6, mouse, IV 3 mg/kg, male, plasma
[7] = C57BL/6, mouse, PO 10 mg/kg, female, plasma
[8] = C57BL/6, mouse, PO 10 mg/kg, male, plasma

Oc1ccc(-c2cncc(Nc3ccc(Br)c(Cl)c3)n2)cc1 [Div17E5]
GFP/OD630, A2b, single replicates (α2β3 integrin TMD; Div17E5 1 μM): 111 and 92 and 98
GFP/OD630, A2b, mean (α2β3 integrin TMD; Div17E5 1 μM): 100
GFP/OD630, A2b, single replicates (α2β3 integrin TMD; Div17E5 2.5 μM): 89 and 116 and 95
GFP/OD630, A2b, mean (α2β3 integrin TMD; Div17E5 2.5 μM): 100
GFP/OD630, A2b, single replicates (α2β3 integrin TMD; Div17E5 5 μM): 95 and 87 and 112
GFP/OD630, A2b, mean (α2β3 integrin TMD; Div17E5 5 μM): 98
GFP/OD630, A2b, single replicates (α2β3 integrin TMD; Div17E5 10 μM): 81 and 96 and 87
GFP/OD630, A2b, mean (α2β3 integrin TMD; Div17E5 10 μM): 88
GFP/OD630, A2b, single replicates (α2β3 integrin TMD; Div17E5 20 μM): 90 and 98 and 82
GFP/OD630, A2b, mean (α2β3 integrin TMD; Div17E5 20 μM): 90
GFP/OD630, A2b, single replicates (α2β3 integrin TMD; Div17E5 50 μM): 79 and 86 and 94
GFP/OD630, A2b, mean (α2β3 integrin TMD; Div17E5 50 μM): 86
real-time homo-FRET anisotropy, Ile253 to Ala mutant ([1]; 10 µM): blunted homo-FRET changes
average anisotropy change, I253A ([1]; 0 min after compound addition): 101
average anisotropy change, I253A ([1]; 0.5 min after compound addition): 97
average anisotropy change, I253A ([1]; 1 min after compound addition): 99
average anisotropy change, I253A ([1]; 1.5 min after compound addition): 105
average anisotropy change, I253A ([1]; 2 min after compound addition): 103
average anisotropy change, I253A ([1]; 2.5 min after compound addition): 100
average anisotropy change, I253A ([1]; 3 min after compound addition): 100
average anisotropy change, I253A ([1]; 3.5 min after compound addition): 99
average anisotropy change, I253A ([1]; 4 min after compound addition): 102
average anisotropy change, I253A ([1]; 4.5 min after compound addition): 95
average anisotropy change, I253A ([1]; 5 min after compound addition): 101
average anisotropy change, I253A ([1]; 5.5 min after compound addition): 100
average anisotropy change, I253A ([1]; 6 min after compound addition): 103
average anisotropy change, I253A ([1]; 6.5 min after compound addition): 91
average anisotropy change, I253A ([1]; 7 min after compound addition): 103
average anisotropy change, I253A ([1]; 7.5 min after compound addition): 100
average anisotropy change, I253A ([1]; 8 min after compound addition): 96
average anisotropy change, I253A ([1]; 8.5 min after compound addition): 103
average anisotropy change, I253A ([1]; 9 min after compound addition): 93
average anisotropy change, I253A ([1]; 9.5 min after compound addition): 102
average anisotropy change, I253A ([1]; 10 min after compound addition): 101
average anisotropy change, I253A ([1]; 10.5 min after compound addition): 97
average anisotropy change, I253A ([1]; 11 min after compound addition): 105
average anisotropy change, I253A ([1]; 11.5 min after compound addition): 98
average anisotropy change, I253A ([1]; 12 min after compound addition): 97
average anisotropy change, I253A ([1]; 12.5 min after compound addition): 99
average anisotropy change, I253A ([1]; 13 min after compound addition): 104
average anisotropy change, I253A ([1]; 13.5 min after compound addition): 102
average anisotropy change, I253A ([1]; 14 min after compound addition): 96
average anisotropy change, I253A ([1]; 14.5 min after compound addition): 104
average anisotropy change, I253A ([1]; 15 min after compound addition): 99
average anisotropy change, I253A ([1]; -0.5 min after compound addition): 106
average anisotropy change, I253A ([1]; -1 min after compound addition): 94
average anisotropy change, I253A ([1]; -1.5 min after compound addition): 101
average anisotropy change, I253A ([1]; -2 min after compound addition): 103
average anisotropy change, I253A ([1]; -2.5 min after compound addition): 97
average anisotropy change, I253A ([1]; -3 min after compound addition): 99

Cc1cccc(-c2cncc(Nc3ccc(Br)c(Cl)c3Cl)n2)c1C [Np75-4A22]
Filopodia per cell, mean of the well (A875 NT cells; 1 uM 4A22 + 100 ng/ml NGF): 24.0741 and 41.2222 and 33.1667 and 30.2857
Filopodia per cell, mean of experiment (A875 NT cells; 1 uM 4A22, A875 NT): 30.1580 and 35.6954 and 33.9792
Filopodia per cell, mean of three experiments (A875 NT cells; 1 uM 4A22, A875 NT): 33.2775
Filopodia per cell (Filopodia / cell), single image (A875 NT cells; 1 uM 4A22, A875 NT, per image of a well): 35
Filopodia per cell, mean of well (A875 NT cells; 1 uM 4A22, A875 NT): 25.1429 and 30.1667 and 33.5 and 37.8333 and 34.4167
Filopodia per cell, mean of the well (A875 NT cells; 1 uM 4A22): 33.2292 and 40 and 23.375 and 24.0278
Filopodia per cell, mean of experiment (A875 NT cells; [3]): 32.1872 and 28.1825 and 34.5833
Filopodia per cell, mean of three experiments (A875 NT cells; [3]): 31.6510
Filopodia per cell, mean of well (A875 NT cells; [3]): 24.6905 and 26.2143 and 30.7143 and 34.6667 and 32.8333 and 35 and 35.8333
Filopodia per cell, mean of experiment (A875 NT cells; 5 uM 4A22, A875 NT): 31.8244 and 33.2924 and 31.8750
Filopodia per cell, mean of three experiments (A875 NT cells; 5 uM 4A22, A875 NT): 32.3306
Filopodia per cell, mean of well (A875 NT cells; 5 uM 4A22, A875 NT): 30.0714 and 40.9286 and 30.3571 and 31.8125 and 34.9167 and 27.4167 and 31.1667 and 34
Filopodia per cell, mean of the well (A875 NT cells; 5 uM 4A22): 26.1667 and 28.75 and 43.1667 and 29.2143
Filopodia per cell, mean of experiment (A875 NT cells; [4]): 28.5179 and 33.2679 and 34.0625
Filopodia per cell, mean of three experiments (A875 NT cells; [4]): 31.9494
Filopodia per cell, mean of well (A875 NT cells; [4]): 33.2976 and 34 and 40.1786 and 25.5952 and 29.75 and 31.9167 and 35.9167 and 38.6667
filopodia per cell, compound alone (A875 NT cells; 1 or 5 μM): no effects per se
NGF-induced filopodia per cell (A875 NT cells; 1 or 5 μM, NGF 100 ng/ml): completely abolished the effects of NGF
AUC(0-t) [2, 5]: 1670 ng·h/mL
Cmax ([2]; C57BL/6, mouse, IV 3 mg/kg, female, plasma, back extrapolated): 3400 ng/mL
clearance ([2]; C57BL/6, mouse, IV 3 mg/kg, female, plasma, read-out: CL): 29.5 mL/min/kg
half-life ([2]; C57BL/6, mouse, IV 3 mg/kg, female, plasma, read-out: T1/2 (converted)): 8.64 h
Vd [2, 5]: 3.23 L/kg
AUC(0-t) [2, 6]: 2070 ng·h/mL
Cmax ([2]; C57BL/6, mouse, IV 3 mg/kg, male, plasma, back extrapolated): 4710 ng/mL
clearance ([2]; C57BL/6, mouse, IV 3 mg/kg, male, plasma, read-out: CL): 23.9 mL/min/kg
half-life ([2]; C57BL/6, mouse, IV 3 mg/kg, male, plasma, read-out: T1/2 (converted)): 7.45 h
Vd [2, 6]: 2.09 L/kg
AUC(0-t) [2, 7]: 2680 ng·h/mL
Tmax [2, 7]: 0.5 h
bioavailability [2, 7]: 48%
Cmax [2, 7]: 1030 ng/mL
AUC(0-t) [2, 8]: 4730 ng·h/mL
Tmax [2, 8]: 0.5 h
bioavailability [2, 8]: 69%
Cmax [2, 8]: 1310 ng/mL
clearance ([2]; i.v. 3 mg/kg, male and female): low clearance
half-life ([2]; i.v. 3 mg/kg, male and female): long half-life
absorption ([2]; oral 10 mg/kg, male and female): rapid absorption
oral bioavailability ([2]; oral 10 mg/kg, male and female, 10 mg/kg): good oral bioavailability; also recorded: high oral bioavailability
